In patent US10988465B2, “CXCR4 inhibitors and uses thereof” (X4 Pharmaceuticals, Inc., priority 2016, dated 2021):

Experiments:
[1] = target: T1, CXCR-4 transfected U87 cell line (U87.CXCR4) (Homo sapiens, UniProt P61073); assay: Intracellular CXCL-12-induced calcium mobilization assay (FLIPR); assay type: cell-based; conditions: U87.CXCR4 cells; CXCL-12 25-50 ng/mL; compound added 15 min before; read-out: IC50 CXCL-12 Ca^2+ flux U87.CXCR4+
T1 construct: expressed in transfected cells; host or cells: U87 (U87.CXCR4)
T1 sequence (P61073 whole entry): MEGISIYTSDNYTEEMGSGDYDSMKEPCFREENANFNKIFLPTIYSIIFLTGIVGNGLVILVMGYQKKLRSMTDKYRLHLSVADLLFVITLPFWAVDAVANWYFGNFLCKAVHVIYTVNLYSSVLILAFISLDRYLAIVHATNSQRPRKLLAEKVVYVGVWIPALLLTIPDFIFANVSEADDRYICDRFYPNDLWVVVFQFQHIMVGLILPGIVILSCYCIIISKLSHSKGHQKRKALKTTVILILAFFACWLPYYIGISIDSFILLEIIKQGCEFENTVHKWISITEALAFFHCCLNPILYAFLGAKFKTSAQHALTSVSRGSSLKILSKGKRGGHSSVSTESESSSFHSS
Protocol: Example 36: REGA Screening Assay
Intracellular CXCL-12-Induced Calcium Mobilization Assay
Intracellular calcium mobilization induced by chemokines or chemokine-derived peptides were evaluated using a calcium responsive fluorescent probe and a FLIPR system. The CXCR-4 transfected U87 cell line (U87.CXCR4) cells were seeded in gelatine-coated black-wall 96-well plates at 20,000 cells per well and incubated for 12 hours. Cells were then loaded with the fluorescent calcium probe Fluo-2 acetoxymethyl at 4 μM final concentration in assay buffer (Hanks' balanced salt solution with 20 mM HEPES buffer and 0.2% bovine serum albumin, pH 7.4) for 45 min at 37° C. The intracellular calcium mobilization induced by the CXCL-12 (25-50 ng/mL) was then measured at 37° C. by monitoring the fluorescence as a function of time in all the wells simultaneously using a fluorometric imaging plate reader (FLIPR Tetra, Molecular Devices).

[2] = target: T2, Jurkat cells expressing CXCR4 (Homo sapiens, UniProt P61073); assay: Chemokine (CXCL12-AF647) binding inhibition assay; conditions: CXCL12-AF647 25 ng/mL, read-out: IC50 CXCL-12 binding Jurkat
T2 construct: endogenous in cells; host or cells: Jurkat
T2 sequence (P61073 whole entry): as above
Protocol: Chemokine (CXCL12-AF647) Binding Inhibition Assay
Jurkat cells expressing CXCR4 were washed once with assay buffer (Hanks' balanced salt solution with 20 mM HEPES buffer and 0.2% bovine serum albumin, pH 7.4) and then incubated for 15 min at room temperature with the test compounds diluted in assay buffer at dose-dependent concentrations. Subsequently, CXCL12-AF647 (25 ng/mL) was added to the compound-incubated cells. The cells were incubated for 30 min at room temperature. Thereafter, the cells were washed twice in assay buffer, fixed in 1% paraformaldehyde in PBS, and analyzed on the FL4 channel of a FACSCalibur flow cytometer equipped with a 635-nm red diode laser (Becton Dickinson, San Jose, Calif., USA).
The percentages of inhibition of CXCL12-AF647 binding were calculated according to the formula: [1−((MFI−MFINC)/(MFIPC−MFINC))]×100 where MFI is the mean fluorescence intensity of the cells incubated with CXCL12-AF647 in the presence of the inhibitor, MFINC is the mean fluorescence intensity measured in the negative control (i.e., autofluorescence of unlabeled cells), and MFIPC is the mean fluorescence intensity of the positive control (i.e., cells exposed to CXCL12-AF647 alone).

in vitro = conditions: human, Caco-2, pH 7.4
Protocol: Example 37: Caco-2 Permeability Assay
The goal of this assay was to evaluate the intestinal absorption potential of drug candidates using Caco-2 cell lines.
HBSS buffer with 0.3% DMSO and 5 μM LY: add 150 μL DMSO and 50 μL LY (5 mM) into 50 ml HBSS buffer (pH 7.4).
HBSS buffer with 0.1% DMSO and 5 μM LY: add 50 μL DMSO and 50 μL LY (5 mM) into 50 mL HBSS buffer (pH 7.4).
HBSS buffer with 0.3% DMSO: add 150 μL DMSO into 50 ml HBSS buffer (pH 7.4).
HBSS buffer with 0.1% DMSO: add 50 μL DMSO into 50 ml HBSS buffer (pH 7.4).
Prepare HBSS buffer with 0.4% DMSO: add 200 μL DMSO into 50 ml HBSS buffer (pH 7.4).
Prepare HBSS buffer with 0.4% DMSO and 5 μM LY: add 200 μL DMSO and 50 μL LY (5 mM) into 50 ml HBSS buffer (pH 7.4).
4. Measure TEER Take cell culture plate out of incubator, wash the cell monolayers with HBSS buffer, and then measure TEER values at Rm temperature. 5. Centrifuge Centrifuge the compound solution (from step 3) at 4000 rpm for 5 min before loading to donor chambers. 6. Dosing Add solution based on the volumes listed in the following table (make sure to take extra 100 μL of donor sample for T0 as Backup).
7. Apical LYT0 samples To determine LY concentration in the apical chember, take 100 μL sample from apical chambers into an opaque plate for LYT0. 8. Prewarm Prewarm apical and basolateral plates at 37° C. for about 5 min, then begin transport by placing the apical plate onto basolateral plate. 9. Incubation Keep the plates in incubator at 37° C. for 90 min. 10. Standard Curve preparation
11. Transport termination Separate the apical plate from the basolateral plate after 90-min incubation.
Receiver sample: 60 μL of receiver sample+60 μL ACN with IS (Osalmid or Imipramine)
Study details: Test concentration 10 μM
Test systems: Caco-2/HBSS solution
Incubation conditions: 0, 90 min at 37° C.
Sample size: Duplicates (n=2)
Bioanalytical method: LC-MS/MS
For Millicell-24 Cell Culture Plates: surface area of the membrane=0.7 cm^2, VA=0.8 mL (A-to-B) or 0.4 mL (B-to-A)
1. Papp values were calculated based on calculated concentrations.
The compound numbers correspond to the compound numbers in Table 1.

IC50 [1] [nM] | IC50 [2] [nM] | Papp A→B at 90 min, 10 μM (in vitro) [×10⁻⁶ cm/s] | Papp B→A at 90 min, 10 μM (in vitro) [×10⁻⁶ cm/s] | efflux ratio at 90 min, 10 μM (in vitro) | Compound
0.01 to 100 | 0.01 to 100 | 0.1 to 10 | 10 to 30 | 0.1 to 10 | CCN1[C@@H](c2nc3ccccc3n2CC2CCN(C)CC2)CCC[C@H]1c1ncccc1C [I-25, 2-((2R,6S)-1-ethyl-6-(3-methylpyridin-2-yl)piperidin-2-yl)-1-((1-methylpiperidin-4-yl)methyl)-1H-benzo[d]imidazole]
≥ 1000 | ≥ 1000 | 10 to 30 | 10 to 30 | 0.1 to 10 | Cc1cccnc1[C@@H]1CCC[C@H](c2nc3ccccc3n2CC2CCN(C)CC2)N1CC(F)(F)F [I-26]
0.01 to 100 | 0.01 to 100 | 0.1 to 10 | 0.1 to 10 | 0.1 to 10 | Cc1cccnc1[C@@H]1CCC[C@H](c2nc3ccccc3n2CCCN2CCC(F)(F)CC2)N1C [I-30, 1-(3-(4,4-difluoropiperidin-1-yl)propyl)-2-((2R,6S)-1-methyl-6-(3-methylpyridin-2-yl)piperidin-2-yl)-1H-benzo[d]imidazole]
0.01 to 100 | 0.01 to 100 | 0.1 to 10 | 10 to 30 | 0.1 to 10 | Cc1cccnc1[C@@H]1CCC[C@H](c2nc3cccc(C4CCN(C)CC4)c3[nH]2)N1C [I-34]
0.01 to 100 | 0.01 to 100 | 0.1 to 10 | 0.1 to 10 | 0.1 to 10 | Cc1cccnc1[C@@H]1CCC[C@H](c2nc3cccc(N4CCN(C)CC4)c3n2C)N1C [I-35]
≥ 1000 | 0.01 to 100 | 0.1 to 10 | 10 to 30 | 10 to 30 | CNCCCCn1c([C@H]2CCC[C@@H](c3ncccc3C)N2C)nc2ccccc21 [I-37]
100 to 1000 | 0.01 to 100 | 0.1 to 10 | 10 to 30 | 0.1 to 10 | Cc1cccnc1[C@@H]1CCC[C@H](c2nc3ccccc3n2CCCCN(C)C)N1C [I-38]

Continued, molecule first:

Compound | IC50 [1] [nM] | IC50 [2] [nM] | Papp A→B at 90 min, 10 μM (in vitro) [×10⁻⁶ cm/s] | Papp B→A at 90 min, 10 μM (in vitro) [×10⁻⁶ cm/s] | efflux ratio at 90 min, 10 μM (in vitro)
Cc1cccnc1[C@@H]1CCC[C@H](c2nc3ccccc3[nH]2)N1CCc1ccccn1 [I-27, 2-((2R,6S)-6-(3-methylpyridin-2-yl)-1-(2-(pyridin-2-yl)ethyl)piperidin-2-yl)-1H-benzo[d]imidazole] | 0.01 to 100 | 0.01 to 100 | 10 to 30 | 10 to 30 | 0.1 to 10
CN1CCN(c2cccc3nc([C@H]4CCC[C@@H](c5ncccc5Br)N4C)[nH]c23)CC1 [I-28, 2-((2R,6S)-6-(3-bromopyridin-2-yl)-1-methylpiperidin-2-yl)-7-(4-methylpiperazin-1-yl)-1H-benzo[d]imidazole] | 100 to 1000 | 0.01 to 100 | 0.1 to 10 | 0.1 to 10 | 0.1 to 10
CN1CCN(c2cccc3nc([C@H]4CCC[C@@H](c5ccccn5)N4C)[nH]c23)CC1 [I-29, 2-((2R,6S)-1-methyl-6-(pyridin-2-yl)piperidin-2-yl)-7-(4-methylpiperazin-1-yl)-1H-benzo[d]imidazole] | 100 to 1000 | 0.01 to 100 | 10 to 30 | 10 to 30 | 0.1 to 10
Cc1cccnc1[C@@H]1CCC[C@H](c2nc3c(N4CCN(C)CC4)cccc3n2C)N1C [I-36] | ≥ 1000 | ≥ 1000 | 10 to 30 | 10 to 30 | 0.1 to 10
